Source: ChEMBL document CHEMBL1150466, “Studies on the active conformation of NK1 antagonist CGP 49823. Part 1. Synthesis of conformationally restricted analogs” (Bioorg Med Chem Lett, 1997)

target: Substance-P receptor (Homo sapiens, UniProt P25103); assay: Tested for the inhibitory potency against Neurokinin 1 NK1 receptor
Sequence (P25103 whole entry): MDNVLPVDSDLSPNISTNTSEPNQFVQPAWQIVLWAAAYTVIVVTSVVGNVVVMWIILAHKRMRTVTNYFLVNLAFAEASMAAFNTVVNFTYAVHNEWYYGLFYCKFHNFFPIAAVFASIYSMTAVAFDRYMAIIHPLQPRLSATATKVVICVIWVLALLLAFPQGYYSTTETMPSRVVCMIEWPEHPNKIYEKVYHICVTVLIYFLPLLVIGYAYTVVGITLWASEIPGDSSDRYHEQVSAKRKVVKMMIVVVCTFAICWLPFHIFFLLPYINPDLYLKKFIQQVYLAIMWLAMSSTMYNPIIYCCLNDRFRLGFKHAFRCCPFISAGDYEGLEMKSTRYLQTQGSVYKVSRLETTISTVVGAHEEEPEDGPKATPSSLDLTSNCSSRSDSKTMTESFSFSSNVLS

Point of comparison: Cc1cc(C)cc(C(=O)N2C3CC(NCc4ccnc5ccccc45)CC2C(c2ccccc2)C3)c1 (racemic; form 2), IC50 640 nM. Against it:
- Cc1cc(C)cc(C(=O)N2C3C=C(c4ccccc4)C2CC(NCc2ccnc4ccccc24)C3)c1 (racemic) — 1.6-fold higher, 1000 nM
- Cc1cc(C)cc(C(=O)N2C3CC(NCc4ccnc5ccccc45)CC2C(c2ccccc2)C3)c1 (racemic; form 1) — 15-fold lower, 44 nM
